Measured values as given in patent US20210338558A1, “USE OF COLLAGEN BINDING DOMAINS TO DELIVER PRODUCTS TO SKIN” (Fabius Biotechnology, priority 2018, published 2021).
Where no end group is shown, it is not given here.

Assays:
native collagen = experiment: binding of growth factors carrying the collagen binding decapeptide to collagen
Text: (§1) Studies with targeted peptides used the decapeptide sequence: Trp-Arg-Glu-Pro-Ser-Phe-Met-Ala-Leu-Ser (WREPSFMALS) (SEQ ID NO: 1). It was linked to either TGF-β or BMP-3 at the C-terminus of the corresponding growth factors.
Polypeptide growth factors, of the TGF-β family, and others, were constructed to contain, at the C-terminal end, a decapeptide with high affinity for collagen (Andrades, Nimni et al. 1996; Tuan, Cheung et al. 1996; Andrades, Han et al. 1999; Hall, Han et al. 2001; Han, Perelman et al. 2002; Romijn, Westein et al. 2003). This was intended to provide concentration of the growth factors where needed for maximum efficacy. In compositions and methods according to the present invention, this effect can be used for delivery of the skin care agent or cosmeceutical to the skin.
This is compared to the behavior of TGF-β without the collagen binding domain, which has poor affinity for collagen.

[1] = biological activity of the covalently linked growth factors; details: growth factor linked at its C-terminus to decapeptide WREPSFMALS
Text: as §1

collagen = details: by binding competition, on a molar basis, relative to intact VWF; cited from earlier work

TGF-β with a collagen binding domain: TGF-β linked at the C-terminus to the decapeptide WREPSFMALS; genetically engineered fusion protein (FIG. 3)
dissociation of binding to collagen (native collagen; FIG. 4, urea): requires a high concentration of urea for dissociation | binding affinity towards native collagen (native collagen; growth factor linked at its C-terminus to decapeptide WREPSFMALS): strong binding affinity | biological activities retained after linkage [1]: retained significant biological activities

WREPSFMALS [SEQ ID NO: 1]
binds more efficiently to collagen than the intact VWF (collagen): 20 times

WREPSFCALS [SEQ ID NO: 2]
binds more efficiently to collagen than the intact VWF (collagen): 20 times

TGF-β without the collagen binding domain: TGF-β lacking the collagen binding domain, comparator in FIG. 4 [reference compound]
affinity for collagen (native collagen; FIG. 4): poor affinity
